Test results as given in US20060014197A1, “In vivo screening methods for identifying inhibitors of RNA polymerases” (priority 2004, published 2006).

Assays:
resident RNAPII = molecular target: T1, resident RNAPII (Homo sapiens, UniProt P24928); assay: Tet-ON GFP reporter assay in transfected eukaryotic cells, no amanitin-resistant RPB1 expressed; format: cell-based; settings: human HeLa or 293 cells, amanitin added, doxycycline induction, 48 hours; FIG. 7B
T1 construct: endogenous in cells; host or cells: human HeLa or 293 cells

[1] = molecular target: T2, amanitin-resistant RNAPII (human RPB1 N792D) (Homo sapiens, UniProt P24928, N792D); assay: Tet-ON GFP reporter assay in transfected eukaryotic cells expressing amanitin-resistant RPB1; format: cell-based; settings: human HeLa or 293 cells with plasmid-expressed amanitin-resistant RPB1, amanitin added, doxycycline induction, 48 hours; FIG. 7B
T2 construct: expressed in transfected cells; host or cells: human HeLa or 293 cells transfected with the RPB1 plasmid and pGFP

In the case of `CC[C@H](C)[C@@H]1NC(=O)CNC(=O)[C@@H]2Cc3c([nH]c4cc(O)ccc34)[S+]([O-])C[C@@H](NC(=O)CNC1=O)C(=O)N[C@@H](CC(N)=O)C(=O)N1C[C@H](O)C[C@H]1C(=O)N[C@@H]([C@@H](C)[C@@H](O)CO)C(=O)N2` (stereo partly drawn) [amanitin, alpha-amanitin], the “GFP fluorescent signal (flow cytometer)” value (resident RNAPII) is reported as “no fluorescent signal is observed” and the “GFP fluorescent signal (flow cytometer)” value [1] is reported as “results in fluorescent signal”.
